Data on two compounds can be found in US5945450A, “Naphthalene derivative” (Teijin Limited, priority 1994, dated 1999).

Each structure is given as a SMILES string.

One assay relates to TF (tissue factor). Nature of the assay: Inhibitory effects on the TF production in LPS-stimulated human peripheral blood monocytes. The following applies: Monocyte, LPS 1 μg/ml, 16 hours. It counts as cell-based. Here is the method: Peripheral venous blood was sampled from the healthy person, and submitted to density-gradient centrifugation so that monocytes might be isolated. The monocytes thus obtained were washed with minimum essential medium (MEM, Gibco) and suspended in a culture medium (RPMI-1640(Gibco)+25 mM HEPES buffer+100 μg/ml streptomycin+100 U/ml penicillin G+2 mM L-glutamine) to give a suspension with a density of 1×10^6 cells/ml. A 0.15 ml of the cell suspension was placed onto each of the wells of a 96-well microplate, to which the compound of this invention as described in Tables 4-1 to 4-2 was added (0.05 ml of the culture medium), and the assembly was placed for 1 hour in a CO2 incubator for cultivation. Then, LPS (lipopolysaccarides, E. coli 0111B4, Difco) 1 μg/ml was added thereto, and the assembly was further cultured for 16 hours. After the supernatant being removed, the residue was washed with physiological saline, 0.1 ml of 16 mM OG (n-octyl-β-D-glucopyranoside) was added thereto, and the assembly was stirred to make TF soluble. A 0.2 ml of physiological saline was added to each residue (final dilution was […]) and this preparation was used for determination of the coagulation stimulating activity (TF-like activity). The test compound had been dissolved in DMSO to give a 0.1 M solution which was diluted with the culture medium prior to use. The final concentration of DMSO was 0.01% or less.
To each well of the microplate, 50 μl of human plasma and 50 μl of the test sample prepared as above for determination of the coagulation stimulating activity, or 50 μl of standard thromboplastin (human thromboplastin, Thromborel S, Behringwerke) were added. The microplate was incubated at 37° C. for 5 minutes, to which was added 25 mM CaCl2 (50 μl/well) containing phosphorous lipids (Platelin, Organon Teknica) at a concentration of […] to initiate coagulation. Coagulation was determined on the basis of absorption at 540 nm, and the measurement lasted 7 to 20 minutes. The data were analyzed with a data analyzing software SOFTMax (Molecular Devices) and the maximum rate time was taken as the coagulation time. The logarithmic values of the coagulation times and standard thromboplastin concentrations are plotted, and a regression parabola was drawn among the dots to give a test curve. From the curve, the inhibitory effect (%) of a given test compound on TF production was calculated. (Refer to J. Imnmunol. Methods, 133:21-29, 1990, and Proc. Natl. Acad. Sci. USA, 89:10370-10374, 1992).

Another assay relates to IgE. Nature of the assay: In vivo inhibition of IgE production in TNP-KLH immunized mice. The following applies: 100 mg/kg/day subcutaneously, twice a day for 10 days, N=10. Further details: species or system BDF1 mice. Here is the method:
TNP-KLH (trinitrophenyl-keyhole-lymphet-hemocyanin) was prepared by the method as described in J. Immunol., 97:421-430, 1966 from KLH and trinitrobenzene sulfonic acid. A […] of TNP-KLH suspended in 0.2 ml of saline and 1 mg of aluminum hydroxide gel were injected into the peritoneal cavity of BDF1 mice (8 weeks old) for immunization. From the day of immunization onward, the compound of this invention listed in Table 5 was given subcutaneously to the same animal twice a day for 10 days (100 mg/kg/day, dissolved in 0.5% Tween 80 in saline, and N=10). To the control group, 0.5% Tween 80 in saline was given at the same time schedule (N=10). Ten days after immunization, blood was extracted from the heart, and the concentrations of IgE, IgG1 and IgM antibodies were determined by ELISA (Immunol. Lett., 23:251-256, 1990, and Eur. J. Immunol., 20:2499-2503, 1990). Inhibition (%) of the antibody production with respect to the control was calculated.

A further assay deals with human IgE antibodies. Nature of the assay: In vitro inhibition of the production of human IgE antibodies (lymphocytes + IL-4 + anti CD40Ab + IL-10, ELISA). Type of assay: cell-based. As to conditions: Lymphocyte, read-out: Inhibition of antibody production (%) IgE. Here is the method:
According to the method described in J. Immunol., 146:1836-1842, 1991 and J. Immunol., 147:8-13, 1991, the concentrations of IgE and IgG antibodies were measured by the procedures described below.
Peripheral venous blood was sampled from the healthy person, and submitted to density-gradient centrifugation to isolate lymphocytes. The lymphocytes thus obtained were washed and suspended in a culture medium (RPMI-1640 (provided by Gibco)+10% heat-inactivated FCS (Whittaker)+100 µg/ml streptomycin+100 U/ml penicillin+2mM L-glutamine). The cell suspensions were cultured for 1 week in the presence/absence of the compounds of this invention at the concentrations as described in Tables 3-1 to 3-2 together with human interleukin 4 (IL-4, Genzyme)([…]), anti CD40 antibodies (anti CD40Ab, Biosource, clone B-B20)([…]) and human interleukin 10 (IL-10, Genzyme)([…]). The culture medium was supplied freshly to the cell suspension, and the mixture was further cultured for another week. The supernatant was sampled and the concentrations of IgE and IgG antibodies therein were measured by sandwich ELISA.
The ELISA was based, for the assay of IgE antibodies, on the use of rabbit anti-human IgE() antibodies (ICN) as the primary antibody and biotin-linked anti-human IgE monoclonal antibodies (G7-26, PharMingen) as the secondary antibody. For the assay of IgG antibodies, anti-human IgG monoclonal antibodies (G18-145, PharMingen) and biotin-linked donkey anti-human IgG antibodies (H+L)(Jackson) were used for the primary and secondary antibodies, respectively. For the assay of both IgE and IgG antibodies, Avidin-Biotin-Horse Radish Peroxidase (ABC kit, Vector Lab) and TMB (3,3',5,5'-tetramethylbenzidine) microwell peroxidase substrate system (Kirkegaard & Perry Laboratories Inc.) were used as the enzyme and the substrate, respectively. The assays were made by the use of conventionally known ELISA.
The inhibitory effect (%) of a given compound of this invention on the production of the antibody was calculated with respect to the concentration of the same antibody when the compound was not coexistent (refer to Uejima et al., American Academy of Allergy and Immunology, Proceedings of 1995 Annual Meeting, Program No. 818).
(An ELISA detects its analyte on a solid surface through an enzyme-linked reagent.)

For `O=C(Nc1ccccc1C(=O)O)c1ccc(Oc2ccc3ccccc3c2)cc1` [Compound No. 1104, 2-(4-(2-naphtyloxy)benzamide)benzoic Acid], the inhibition (as a rule, the percentage by which the read-out fell short of the control) at 1 µM came out at 45.3% with TF (tissue factor) (1 μM) and 35.9% in the assay with human IgE antibodies. Besides, the inhibition at 3 µM came to 90.4% in the assay with TF (tissue factor) and 85.6% in the assay with human IgE antibodies. Moreover, the inhibition at 10 µM was 100% in the assay on TF (tissue factor) (10 μM) and 98.2% in the assay with human IgE antibodies. Also, the “Inhibition of antibody production (%) IgE” value with IgE turned out to be 60.4%.

For the compound `O=C(Cc1ccc(Oc2ccc3ccccc3c2)cc1)Nc1ccccc1C(=O)O` [Compound No. 1126, 2-(4-(2-naphtyloxy)phenylacetamide)benzoic acid], 3 µM produced 26.5% inhibition in the assay on TF (tissue factor). Moreover, the “Inhibition of antibody production (%) IgE” value in the assay on IgE worked out at 78.9%. Further, in the assay with human IgE antibodies, the inhibition at 1 µM is 63.9%, the inhibition at 3 µM is 93.5% and the inhibition at 10 µM worked out at 97.9%.
